Values quoted from earlier work in patent publication US20050148552A1, “Methods of treating eczema” (priority 2003, published 2005).
Structures can show the parent of a compound that is named as a salt.

Tests used:
[1] = 250 mg every six hours over a twenty-four hour period
[2] = single dose of two 100 mg minocycline HCl tablets or capsules, adult humans

| average minocycline serum level [2] [µg/mL] | Compound | peak serum level [1] |
| --- | --- | --- |
|  | CN(C)[C@@H]1C(O)=C(C(N)=O)C(=O)[C@@]2(O)C(O)=C3C(=O)c4c(O)cccc4[C@@](C)(O)[C@H]3C[C@@H]12 [tetracycline HCl] | approximately 3 μg/ml |
| 2.24 | CN(C)c1ccc(O)c2c1C[C@H]1C[C@H]3[C@H](N(C)C)C(O)=C(C(N)=O)C(=O)[C@@]3(O)C(O)=C1C2=O [minocycline HCl] |  |
